Measured values as given in US6831075B2, “Heterocyclic substituted pyrazolones” (Cephalon, Inc., priority 1999, dated 2004).

Tests used:
Assay type in all cases: biochemical
[1] = target: T1, recombinant human baculovirus-expressed VEGFR1 cytoplasmic domain (Homo sapiens, UniProt P17948); experiment: VEGFR1 kinase inhibition assay (ELISA-based, time-resolved fluorescence); conditions: 1 uM compound, 30 μM ATP
T1 construct: recombinant human baculovirus-expressed VEGFR1 cytoplasmic domain; host or cells: baculovirus expression system
T1 sequence (P17948 781-1338 limits assumed): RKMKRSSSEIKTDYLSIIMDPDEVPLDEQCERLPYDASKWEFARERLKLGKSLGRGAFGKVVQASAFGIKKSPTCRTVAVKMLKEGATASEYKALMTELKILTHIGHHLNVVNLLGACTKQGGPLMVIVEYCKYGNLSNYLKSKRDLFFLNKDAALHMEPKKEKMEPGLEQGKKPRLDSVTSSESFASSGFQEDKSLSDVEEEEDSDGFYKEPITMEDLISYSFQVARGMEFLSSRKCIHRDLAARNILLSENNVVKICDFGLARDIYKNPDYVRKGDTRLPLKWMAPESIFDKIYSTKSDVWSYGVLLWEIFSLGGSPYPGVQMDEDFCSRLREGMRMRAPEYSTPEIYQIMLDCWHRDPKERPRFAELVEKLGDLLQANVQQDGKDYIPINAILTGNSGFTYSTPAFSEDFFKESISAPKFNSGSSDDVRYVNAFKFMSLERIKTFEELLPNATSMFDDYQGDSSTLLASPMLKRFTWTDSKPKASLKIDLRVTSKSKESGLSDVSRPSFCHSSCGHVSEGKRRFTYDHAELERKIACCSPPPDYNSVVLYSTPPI
Method: Inhibition of Vascular Endothelial Growth Factor Receptor-1 Kinase Activity
The VEGFR1 kinase activity assay utilizes an ELISA-based format in a 96-well FluoroNUNC Maxisorp plate with a time-resolved fluorescence readout. The plate was coated with 100 μl/well of substrate solution (recombinant human PLC-γ/GST) at a concentration of 40 μg/ml in Tris buffered saline (TBS). The VEGFR1 activity was assayed in 100-μl assay micture containing 50 mM HEPES (pH 7.4), 30 μM ATP, 10 mM MnCl2, 0.1% BSA, 2% DMSO, and 300 ng/ml prephosphorylated recombinant human baculovirus-expressed VEGFR1 cytoplasmic domain. Compounds were screened for inhibition of the VEGFR1 kinase activity at a concentration of 1 μM. The kinase reaction was allowed to proceed at 37° C. for 15 minutes. The detection antibody, europium-labeled anti-phosphotyrosine antibody (Wallac #CR04-100), was added at 1:5000 dilution in block buffer (3% BSA in TBST). After a 1-hour incubation at 37° C., 100 μl of enhancement solution (Wallac #1244-105) was added and the plate was gently agitated. After 5 min, the fluorescence of the resulting solution was measured using the BMG Fluostar (Model # 403).

[2] = target: T2, baculovirus-expressed human trkA cytoplasmic domain (Homo sapiens, UniProt P04629); experiment: trkA tyrosine kinase inhibition assay (ELISA-based); conditions: 1 uM compound; 40 μM ATP
T2 construct: baculovirus-expressed human trkA cytoplasmic domain; host or cells: baculovirus expression system
T2 sequence (P04629 440-796 limits assumed): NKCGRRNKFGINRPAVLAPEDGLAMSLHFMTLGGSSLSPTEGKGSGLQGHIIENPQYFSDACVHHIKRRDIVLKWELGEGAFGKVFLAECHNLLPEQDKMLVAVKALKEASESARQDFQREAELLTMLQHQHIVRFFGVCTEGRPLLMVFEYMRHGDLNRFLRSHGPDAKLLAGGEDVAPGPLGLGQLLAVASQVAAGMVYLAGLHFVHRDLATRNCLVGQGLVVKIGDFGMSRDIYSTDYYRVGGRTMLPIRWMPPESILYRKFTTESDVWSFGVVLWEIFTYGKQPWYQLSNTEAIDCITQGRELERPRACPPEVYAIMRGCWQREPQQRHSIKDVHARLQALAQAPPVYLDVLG
Method: Inhibition of trkA Tyrosine Kinase Activity
Selected heterocyclic substituted pyrazolones were tested for their ability to inhibit the kinase activity of baculovirus-expressed human trkA cytoplasmic domain using an ELISA-based assay as previously described (Angeles et al., Anal. Biochem. 236: 49-55, 1996). Briefly, a 96-well microtiter plate was coated with substrate solution (recombinant human phospholipase C-γl/glutathione S-transferase fusion protein (Rotin et al., EMBO J., 11: 559-567, 1992). Inhibition studies were performed in 100 μl assay mixtures containing 50 mM Hepes, pH 7.4, 40 μM ATP, 10 mM MnCl2, 0.1% BSA, 2% DMSO, and various concentrations of inhibitor. The reaction was initiated by addition of trkA kinase and allowed to proceed for 15 minutes at 37° C. An antibody to phosphotyrosine (UBI) was then added, followed by a secondary enzyme-conjugated antibody, alkaline phosphatase-labelled goat anti-mouse IgG (Bio-Rad). The activity of the bound enzyme was measured via an amplified detection system (Gibco-BRL). Inhibition data were analyzed using the sigmoidal dose-response (variable slope) equation in GraphPad Prism.

baculoviral GST-MLK1KD = target: T3, baculoviral GST-MLK1KD (Homo sapiens, UniProt P80192); experiment: Mixed Lineage Kinase-1 inhibition assay (Millipore Multiscreen TCA in-plate, 32P); conditions: for MLK-1 Kinase % inhibition @ 1 uM: 1 uM compound, 60 μM ATP
T3 construct: 1 μg/ml of baculoviral GST-MLK1KD; GST (N); host or cells: baculovirus expression system
T3 sequence (P80192 144-412 limits assumed): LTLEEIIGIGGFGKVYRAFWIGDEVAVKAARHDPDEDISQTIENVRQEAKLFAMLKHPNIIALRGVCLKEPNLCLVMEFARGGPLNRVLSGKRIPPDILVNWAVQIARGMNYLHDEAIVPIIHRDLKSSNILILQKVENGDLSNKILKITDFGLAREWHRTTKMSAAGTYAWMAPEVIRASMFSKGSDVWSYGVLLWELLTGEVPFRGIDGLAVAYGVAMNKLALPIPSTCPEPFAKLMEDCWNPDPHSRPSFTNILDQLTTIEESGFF
Method: Inhibition of Mixed Lineage Kinase-1 Activity
The kinase activity of MLK1 was assessed using the Millipore Multiscreen TCA “in-plate” format as described for protein kinase C (Pitt & Lee, J. Biomol. Screening, 1: 47-51, 1996). Briefly, each 50-μl assay mixture contained 20 mM Hepes, pH 7.0, 1 mM EGTA, 10 mM MgCl2, 1 mM DTT, 25 mM β-glycerophosphate, 60 μM ATP, 0.25 μCi [γ-^32P]ATP, 0.1% BSA, 500 μg/ml myelin basic protein (UBI #13-104), 2% DMSO, 1 μM of test compound, and 1 μg/ml of baculoviral GST-MLK1KD. Samples were incubated for 15 min at 37° C. The reaction was stopped by adding ice cold 50% TCA and the protein were allowed to precipitate for 30 min at 4° C. The plates were then washed with ice cold 25% TCA. Supermix scintillation cocktail was added, and the plates were allowed to equilibrate for 1-2 hours prior to counting using the Wallac MicroBeta 1450 PLUS scintillation counter.

[3] = target: T4, recombinant human baculovirus-expressed FGFR1 cytoplasmic domain (Homo sapiens, UniProt P11362); experiment: FGFR1 kinase inhibition assay (ELISA-based, time-resolved fluorescence); conditions: 1 uM compound; 20 μM ATP
T4 construct: recombinant human baculovirus-expressed FGFR1 cytoplasmic domain; host or cells: baculovirus expression system
T4 sequence (P11362 398-822 limits assumed): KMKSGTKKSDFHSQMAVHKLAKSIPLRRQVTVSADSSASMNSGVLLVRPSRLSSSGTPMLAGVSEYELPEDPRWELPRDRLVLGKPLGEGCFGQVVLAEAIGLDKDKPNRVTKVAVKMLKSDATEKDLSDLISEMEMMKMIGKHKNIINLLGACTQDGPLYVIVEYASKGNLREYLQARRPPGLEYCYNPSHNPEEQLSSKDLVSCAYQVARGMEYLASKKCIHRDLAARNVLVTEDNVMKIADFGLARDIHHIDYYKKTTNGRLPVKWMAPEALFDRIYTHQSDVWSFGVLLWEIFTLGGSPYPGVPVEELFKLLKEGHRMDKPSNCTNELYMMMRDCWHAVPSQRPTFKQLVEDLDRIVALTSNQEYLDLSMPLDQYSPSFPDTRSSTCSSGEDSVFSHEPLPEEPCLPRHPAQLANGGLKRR
Method: Inhibition of Fibroblast Growth Factor Receptor-1 (FGFR1) Kinase Activity
The FGFR1 kinase activity was measured using an ELISA-based format in a 96-well FluoroNUNC Maxisorp plate with a time-resolved fluorescence readout as described for trkA kinase. The plate was coated with 100 μl/well of substrate solution (recombinant human PLC-γ/GST) at a concentration of 10 μg/ml in Tris buffered saline (TBS). The FDGFR1 activity was assayed in 100-μl assay micture containing 50 mM HEPES (pH 7.4), 20 μM ATP, 10 mM MnCl2, 0.1% BSA, 2% DMSO, and 15 ng/ml recombinant human baculovirus-expressed FGFR1 cytoplasmic domain (prephosphorylated prior to use). Compounds were screened for inhibition of the FGFR1 kinase activity at a conentration of 1 μM. The kinase reaction was allowed to proceed at 37° C. for 15 minutes. The detection antibody, europium-labeled anti-phosphotyrosine antibody (Wallace #CR04-100), was added at 1:5000 dilution in block buffer (3% BSA in TBST). After a 1-hour incubation at 37° C., 100 μl of enhancement solution (Wallac #1244-105) and the plate was gently agitated. After 5 min, the fluorescence of the resulting solutions measured using the BMG Fluostar (Model # 403).

Compound	VEGFR-1 kinase % inhibition @ 1 uM [1] [%]	trkA % inhibition @ 1 uM [2] [%]	MLK-1 Kinase % inhibition @ 1 uM (baculoviral GST-MLK1KD) [%]	FGFR1 % inhibition @ 1 uM [3] [%]	inhibition at 1 µM ([1]; read-out: VEGFR-1 kinase % inhibition @ 1 uM) [%]	inhibition at 1 µM [2] [%]	inhibition at 1 µM (baculoviral GST-MLK1KD; read-out: MLK-1 Kinase % inhibition @ 1 uM) [%]	inhibition at 1 µM [3] [%]
Cc1ccc2c(C=C3C(=O)NN=C3c3ccco3)c[nH]c2c1 [Compound 46]	41	29	13	25				
Cc1cccc2c(C=C3C(=O)NN=C3c3ccco3)c[nH]c12 [Compound 47]	40	37	33	32				
O=C1NN=C(c2ccco2)C1=Cc1c[nH]c2ccc(F)cc12 [Compound 48]	54	47	2	43				
O=C1NN=C(c2ccco2)C1=Cc1c[nH]c2ccc(Cl)cc12 [Compound 49]	32	56	−10	39				
COC(=O)c1ccc2c(C=C3C(=O)NN=C3c3ccco3)c[nH]c2c1 [Compound 50]	31	28	11	20				
COc1ccc2[nH]cc(C=C3C(=O)NN=C3c3ccco3)c2c1 [Compound 51]	25	56	26	9				
CN(C)c1ccc(C=C2C(=O)NN=C2c2ccco2)cc1 [Compound 52]	0	10	5	10				
Cc1nc[nH]c1C=C1C(=O)NN=C1c1ccco1 [Compound 53]	21	20	7	50				
O=C1NN=C(c2ccco2)C1=Cc1ncc[nH]1 [Compound 54]	5	20	−12	45				
Cc1cc(C)c(C=C2C(=O)NN=C2c2cccn2C)[nH]1 [Compound 55]	20	47	−5	36				
Cn1cccc1C1=NNC(=O)C1=Cc1c[nH]c2ccc(F)cc12 [Compound 56]	5	48	−22	30				
Cc1cc(C)c(C=C2C(=O)NN=C2c2cc3ccccc3o2)[nH]1 [Compound 57, 3-benzo[d]furan-2-yl-4-[(3,5-dimethylpyrrol-2-yl)methylene]-2-pyrazolin-5-one]					7	33	44	-2
O=C1NN=C(c2cc3ccccc3o2)C1=Cc1c[nH]c2ccccc12 [Compound 58]	51	30	44	24				
Cn1cc(C=C2C(=O)NN=C2c2cc3ccccc3o2)c2ccccc21 [Compound 59]	−2	40	41	29				
Cn1cc(C=C2C(=O)NN=C2c2nccs2)c2ccccc21 [Compound 60]	63	71	37	66				
Cc1cc(C)c(C=C2C(=O)NN=C2c2cccs2)[nH]1 [Compound 61]	44	35	8	35				
O=C1NN=C(c2cccs2)C1=Cc1c[nH]c2ccccc12 [Compound 62]	38	45	15	37				
Cn1cc(C=C2C(=O)NN=C2c2cccs2)c2ccccc21 [Compound 63]	40	60	14	38				
N#CCCn1cc(C=C2C(=O)NN=C2c2nccs2)c2ccccc21 [Compound 64]	26	10	10	7				
N#CCCn1cc(C=C2C(=O)NN=C2c2ccoc2)c2ccccc21 [Compound 65]	22	22	10	21				
N#CCCn1cc(C=C2C(=O)NN=C2c2cccs2)c2ccccc21 [Compound 66]	24	32	11	29				
N#CCCn1cc(C=C2C(=O)NN=C2c2ccco2)c2ccccc21 [Compound 67]	22	40	3	23				
O=C1NN=C(c2ccoc2)C1=Cc1cn(Cc2ccccc2)c2ccccc12 [Compound 68]	11	42	17	27				
